The values below come from US20190153024A1, “NOVEL SALTS AND POLYMORPHS OF SCY-078” (priority 2015, published 2019).

Common to all, as to type: physicochemical
Data set [1] in a line: Approximate solubility in solvents at room temperature. As to conditions: 25 °C, thermodynamic from solid. On the procedure:
Approximate solubility of SCY-078 salts—The term “approximate solubility” with respect to SCY-078 salts means the procedure described in this paragraph. To conduct each experiment, a sample of a SCY-078 salt (˜2 mg) was added into a 3-mL glass vial. Then a solvent was added step-wise (100 μL per step) into the vials until the solids were dissolved or a total volume of 2 mL was reached.
First, MeOH desolvate (˜2 mg) was added to a 3-mL glass vial. Then the corresponding solvent was added step wise (100 μL) until the solution was visually clear or a total volume of 2 mL was reached.

The nature of data set [2]: Kinetic solubility of SCY-078 freebase (MeOH desolvate, amorphous freebase). The following applies: residual solid by XRPD. On the procedure:
Kinetic Solubility of SCY-078 Freebase: The kinetic solubility of SCY-078 MeOH desolvate and SCY-078 amorphous freebase was evaluated in SGF media, FaSSIF media, FeSSIF media, dextrose buffer (pH 5.5), phosphate buffer (pH 6.0), and phosphate buffer (pH 7.5) at room temperature. First, solid SCY-078 MeOH desolvate or SCY-078 amorphous freebase (˜15 mg) was weighed into a 4-mL vial. Then the relevant media (3.0 mL) was added and the suspensions were stirred on a rolling incubator (25 rpm) at room temperature for 1 hour, 4 hours, and 24 hours respectively. After stirring, 0.5 mL of suspension was centrifuged and filtered (0.45 μm). The residual solids were analyzed by XRPD, and the supernatant was measured by HPLC and pH meter.

Data set [3] can be described thus: Dynamic Vapor Sorption (DVS) water uptake. How it is done:
Dynamic Vapor Sorption (DVS)—The term “DVS” means the procedure described in below. The relative humidity at 25° C. was calibrated against deliquescence point of LiCl, Mg(NO3)2 and KCl.
The DVS of SCY-078 salts were tested according to the above method, using a 10-20 mg sample size. The DVS was measured using a Surface Measurement Systems (SMS) DVS Intrinsic.

≈ marks a conversion by molar mass, not a printed value.

The term solubility denotes how much of the substance goes into solution per volume. Consider `CC(C)[C@@H](C)[C@@]1(C)CC[C@]2(C)[C@H]3CC[C@@H]4[C@@]5(COC[C@]4(C)[C@@H](OC[C@](C)(N)C(C)(C)C)[C@H](n4ncnc4-c4ccncc4)C5)C3=CC[C@@]2(C)[C@@H]1C(=O)O` [SCY-078, (1S,4aR,6aS,7R,8R,10aR,10bR,12aR,14R,15R)-15-[[(2R)-2-amino-2,3,3-trimethylbutyl]oxy]-8-[(1R)-1,2-dimethylpropyl]-14-[5-(4-pyridinyl)-1H-1,2,4-triazol-1-yl]-1,6,6a,7,8,9,10,10a,10b,11,12,12a-dodecahydro-1,6a,8,10a-tetramethyl-4H-4a-propano-2H -phenanthro[1,2-c]pyran-7-carboxylic acid], for which the solubility in data set [1] (organic solvent or mixture, 1,4-Dioxane, RT) is over 37 mg/mL; in data set [1] (organic solvent or mixture, 2-MeTHF, RT), over 25 mg/mL; in data set [1] (organic solvent or mixture, Acetic Acid, RT), over 25 mg/mL; in data set [1] (organic solvent or mixture, Acetone, RT), 8.3 to 12.5 mg/mL (≈ 11.4 to 17.1 mM); in data set [1] (organic solvent or mixture, CHCl3, RT), over 33 mg/mL; in data set [1] (organic solvent or mixture, DMA, RT) it was over 40 mg/mL. Moreover, the solubility in data set [1] (organic solvent or mixture, DMSO, RT) was over 32 mg/mL; in data set [1] (organic solvent or mixture, EtOAc, RT), over 23 mg/mL; in data set [1] (organic solvent or mixture, EtOH, RT), 2.6 to 3 mg/mL (≈ 3.56 to 4.11 mM); in data set [1] (organic solvent or mixture, Heptane, RT), under 2.2 mg/mL; in data set [1] (organic solvent or mixture, IPA, RT), 7 to 11 mg/mL (≈ 9.59 to 15.1 mM); in data set [1] (organic solvent or mixture, MIBK, RT), over 29 mg/mL. Moreover, the solubility in data set [1] (organic solvent or mixture, MTBE, RT) is over 23 mg/mL; in data set [1] (organic solvent or mixture, MeOH, RT) it was 5.4 to 6.3 mg/mL (≈ 7.4 to 8.63 mM); in data set [1] (organic solvent or mixture, NMP, RT) it was over 45 mg/mL; in data set [1] (organic solvent or mixture, THF, RT) it was over 23 mg/mL; in data set [1] (organic solvent or mixture, Toluene, RT), 6.8 to 8.5 mg/mL (≈ 9.31 to 11.6 mM); in data set [1] (organic solvent or mixture, iPrOAc, RT), 10.5 to 21 mg/mL (≈ 14.4 to 28.8 mM). The solubility is 2.6 to 2.9 mg/mL (≈ 3.56 to 3.97 mM) in data set [1] (acetonitrile (ACN), organic solvent or mixture, ACN, RT) and under 1.9 mg/mL in data set [1] (water (H2O), water, H2O, RT).
On to `CC(C)[C@@H](C)[C@@]1(C)CC[C@]2(C)[C@H]3CC[C@@H]4[C@@]5(COC[C@]4(C)[C@@H](OC[C@](C)(N)C(C)(C)C)[C@H](n4ncnc4-c4ccncc4)C5)C3=CC[C@@]2(C)[C@@H]1C(=O)O` [Amorph.], for which the Form result is listed as “Amorph” in data set [2] (FaSSIF, 1 hour); “Amorph” in data set [2] (FaSSIF, 4 hours); “Amorph” in data set [2] (FaSSIF, 24 hours); “Amorph” in data set [2] (FeSSIF, 1 hour); “Amorph” in data set [2] (FeSSIF, 4 hours); “Amorph” in data set [2] (FeSSIF, 24 hours). Further, the Form entry in data set [2] (pH 5.5 buffer, 4 hours) was “Amorph”; in data set [2] (pH 5.5 buffer, 24 hours) it was “Amorph”; in data set [2] (pH 6.0 buffer, 4 hours), “Amorph”; in data set [2] (pH 6.0 buffer, 24 hours), “Amorph,”; in data set [2] (pH 7.5 buffer, 4 hours), “Amorph”; in data set [2] (pH 7.5 buffer, 24 hours), “Amorph”.
In the case of `CC(C)[C@@H](C)[C@@]1(C)CC[C@]2(C)[C@H]3CC[C@@H]4[C@@]5(COC[C@]4(C)[C@@H](OC[C@](C)(N)C(C)(C)C)[C@H](n4ncnc4-c4ccncc4)C5)C3=CC[C@@]2(C)[C@@H]1C(=O)O` [SCY-078 amorphous freebase], the “water uptake (DVS)” value in data set [3] (25° C., 80% RH) was about 4.8%. Moreover, the “solid form by XRPD after DVS” value in data set [3] (after DVS experiment) was “no form change”.
